In US9539221B2, “Method of treating airway diseases with β-adrenergic inverse agonists” (EGB ADVISORS, LLC, priority 2003, dated 2017):
“Also recorded” adds a separate entry of the source.

Experiments:
[1] = acute administration; cited from earlier work
[2] = system: patients with CHF; details: cited from earlier work
[3] = system: sensitized and allergen-challenged mice; test: Acute nadolol with aminophylline, methacholine-induced bronchoconstriction; assay type: in vivo; details: aminophylline 100 mg/kg i.p. during methacholine; untreated and nadolol-treated mice
Experimental: Mice were sensitized to the allergen ovalbumin as described in Example 1. […] At time point 1 (time=−10 min) baseline airway resistance of the mice was determined. At time point 2 (time=−5 min) methacholine was infused into mice to reach their EC70.

[4] = system: tracheas from the mice; details: asthmatic mice chronically treated; WO 02/29534; cited from earlier work
[5] = cited from earlier work
[6] = system: asthmatic mice; test: Airway resistance (Raw) response to methacholine provocation in murine model of asthma (forced oscillation); assay type: in vivo, Balb/cJ mice; details: 7 days, metoprolol 20 mg/kg 3× daily subcutaneous, timolol 20 mg/kg in chow
[7] = system: β-adrenergic receptor; details: U.S. Pat. No. 5,116,867; cited from earlier work
[8] = system: asthmatic mice; test: Combination therapy carvedilol and salbutamol on airway hyperresponsiveness; assay type: in vivo, Balb/cJ mice; details: 28 days carvedilol 2400 ppm in chow, alone or with salbutamol chronic (0.5 mg/kg/day) or acute ([…]); highest dose of methacholine
Experimental: Mice (Balb/cJ) aged 6 weeks were housed under specific pathogen-free conditions and fed a chicken ovalbumin-free diet. Mice were systemically sensitized with ovalbumin adsorbed to aluminum hydroxide. Mice were treated as follows: CAR/SAL 28D=for 28 days mice (n=6-12) were administered carvedilol (2400 ppm in animal chow) and salbutamol (subcutaneous delivery of 0.5 mg/kg/day in an Alzet #2400 osmotic minipump); NTX S/C=mice (n=6-12) no drug treatment for 28 days; CTRL=mice (n=6-12) no drug treatment for 28 days, not subsequently challenged; CARHD 28D=for 28 days mice (n=6-12) were administered carvedilol only (2400 ppm in animal chow); CARHD 28D SAL AC=for 28 days mice (n=6-12) were administered carvedilol (2400 ppm in animal chow) and 15 minutes prior to measuring airway hyperresponsiveness, salbutamol was administered at a dose of […].
To measure airway hyperresponsiveness after 28 days, all mice except the CTRL (control) mice were challenged with ovalbumin and then all mice were anesthetized, tracheotomized, and connected to a Flexivent small animal ventilator to measure airway resistance (Raw) by the forced oscillation technique. To induce airway constriction, a solution containing 150 μg/mL of methacholine was infused using a syringe infusion pump. The methacholine infusion was started at 0.008 mL/min and its rate was doubled stepwise up to a maximum […]. […]

[9] = system: β2-adrenergic receptor; test: β-adrenergic receptor density in lung membranes of treated asthmatic mice by ICYP radioligand binding; assay type: in vivo; details: 2 days of administration
Experimental: (§1) β2-adrenergic receptor numbers were measured in asthmatic mice as follows. […] Mice were sacrificed and lung membranes were isolated as follows. Frozen lung tissue was homogenized in an ice-cold buffer containing 0.32 M sucrose and 25 mM Tris (pH 7.4) using a polytron (Pro 200, Pro Scientific, Inc.). The homogenate was centrifuged at 1000×g for 10 min at 4° C. The resulting supernatant was centrifuged at 40,000×g for 20 min at 4° C. The pellet was suspended in an ice-cold 25 mM Tris-HCl buffer (pH 7.4) and centrifuged at 40,000×g for 20 min at 4° C. The final pellet was suspended in 200 μL of 25 mM Tris-HCl (pH 7.4); membrane protein concentration was determined by BCA protein assay kit. […] The incubation was done at 37° C. for 2 h and terminated by rapid vacuum filtration through glass fiber filters. The filters were washed three times with 250 μL of cold wash buffer (25 mM Tris-HCl, pH 7.4) and the radioactivity determined in a counter. […] Receptor densities are expressed as femtomoles of sites per milligram of protein. Bmax is determined by nonlinear regression of the saturation binding curves.

[10] = molecular target: β2-adrenergic receptor (Mus musculus, UniProt P18762); test: as above; assay type: in vivo; details: for Bmax (β-adrenergic receptor density): 15 Minutes drug treatment
β2-adrenergic receptor (Mus musculus, UniProt P18762), sequence (P18762 whole entry): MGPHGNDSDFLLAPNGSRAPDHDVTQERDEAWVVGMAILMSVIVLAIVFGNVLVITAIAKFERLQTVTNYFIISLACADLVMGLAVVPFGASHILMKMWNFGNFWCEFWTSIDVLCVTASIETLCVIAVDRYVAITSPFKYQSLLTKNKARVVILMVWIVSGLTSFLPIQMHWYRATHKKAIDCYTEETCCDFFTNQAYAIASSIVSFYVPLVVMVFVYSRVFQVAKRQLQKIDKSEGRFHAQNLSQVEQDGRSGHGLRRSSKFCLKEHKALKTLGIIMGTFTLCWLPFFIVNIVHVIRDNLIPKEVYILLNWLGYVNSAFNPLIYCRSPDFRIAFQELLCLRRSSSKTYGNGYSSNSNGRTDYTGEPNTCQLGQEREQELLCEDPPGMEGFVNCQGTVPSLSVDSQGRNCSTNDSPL
Experimental: as §1

[11] = system: asthmatic mice; test: Airway resistance (Raw) response to methacholine provocation in murine model of asthma (forced oscillation); assay type: in vivo, Balb/cJ mice
Experimental: Balb/cJ mice aged 6 weeks (Jackson Animal Laboratory, Bar Harbor, Me.) were housed under specific pathogen-free conditions and fed a chicken ovalbumin-free diet. The Animal Research Ethics Boards of both the University of Houston and the Baylor College of Medicine approved all experiments reported here. […] Mice were sensitized with subcutaneous injection of 25 μg of ovalbumin adsorbed to aluminum hydroxide on protocol days 2, 9, and 16. Subsequently, mice were given 50 μL of saline solution containing 25 μg of ovalbumin intranasally, on a daily basis, from protocol days 23 through 27. A group of ovalbumin-sensitized saline-challenged mice serves as controls for systemic sensitization and respiratory challenges with ovalbumin. Prior to intranasal administrations, mice were sedated with halothane vapor.
To examine the effects of duration of β-adrenergic ligand therapy on the phenotype of the murine model of asthma, the experimental drugs were administered either acutely or chronically to different groups of asthmatic mice.
Asthmatic mice on acute therapy were given a single intravenous bolus infusion of either β-adrenergic drug or normal saline on protocol day 28, 15 minutes before airway responsiveness to methacholine was determined. […] Asthmatic mice on chronic therapy were treated with the β-adrenergic drug during protocol days 1 to 28. […] These concentrations were chosen based on those producing therapeutic effects in mice in previously published studies. The non-asthmatic mice were fed normal chow.
On protocol day 28, mice were anesthetized, tracheotomized, and connected to a computer-controlled small animal ventilator (Flexivent, Scientific Respiratory Equipment, Inc., Montreal, Canada). Airway resistance (Raw) was measured using the forced oscillation technique. The cellular composition of bronchoalveolar lavage fluid (BALF) was also determined.
To induce airway constriction, a solution containing 150 μg/mL of acetyl-α-methylcholine chloride (methacholine) (Sigma Chemical, St. Louis, Mo.) was infused intravenously at constant rates using a syringe infusion pump (Raze Scientific Instruments, Stanford, Conn.). […] Each methacholine dose was administered for 3 to 5 minutes, during which data were sampled at 1-minute intervals and then averaged.
The complex input impedance of the respiratory system was computed and the value of the real part of respiratory system impedance at 19.75 Hz was taken to reflect the magnitude of airway resistance (Raw). To examine the degree of airway responsiveness of each animal, the values for Raw as a function of methacholine doses were plotted. The largest value for Raw achieved in response to methacholine stimulation was referred to as Rawpeak. For mice that achieved a plateau in the methacholine dose-Raw response curve, the ED50 was calculated by linear interpolation using the GraphPad Prism4 (GraphPad Software, Inc.). […] The Bonferroni test was used to examine the statistical differences between experimental groups. The effects of acute drug treatments on baseline respiratory system mechanics were assessed using a two-tailed paired t-test. A value of P<0.05 was considered significant.
For these experiments, salbutamol was used for chronic administration at 0.5 mg/kg/day with a minipump and for acute administration at 0.15 mg/kg by i.v. bolus 15 minutes prior to challenge. Alprenolol was used at a high dose of 7200 ppm in chow or at a low dose of 720 ppm in chow. Carvedilol was used at a high dose of 2400 ppm in chow or at a low dose of 720 ppm in chow.

[12] = large trial; cited from earlier work
[13] = lung membranes of asthmatic mice, mean±SEM
[14] = 28 Days drug treatment, lung membranes of asthmatic mice, mean±SEM
[15] = asthmatic mice, chronic: 28 days (chow; salbutamol by osmotic minipump)

**Q.** With CC(C)NC[C@H](O)COc1cccc2ccccc12 [L-form, propranolol] as the compound, how does the specific lung resistance [1] read?
**A.** The specific lung resistance was “increased specific lung resistance”.

**Q.** For CC(C)(Cc1c[nH]c2ccccc12)NCC(O)COc1ccccc1C#N (stereo not shown) [Bucindolol, bucindolol], which “clinical benefit in congestive heart failure” value (shortened to “clinical benefit”) [2] is on record?
**A.** Its value is “failed to demonstrate any benefit over placebo”.

**Q.** With Cn1c(=O)c2[nH]cnc2n(C)c1=O [aminophylline] as the compound, how does the “airway resistance after aminophylline administration” value [3] read?
**A.** Its value is “significant and sustained drop in airway resistance; also recorded: can alleviate the acute effects on airway hyperresponsiveness of nadolol administration”.

**Q.** For Cc1ccc(OCC(O)C(C)NC(C)C)c2c1CCC2 (stereo not shown) [ICI-118,551], which “effectiveness on contraction of excised tracheas in response to methacholine (rank)” value [4] is on record?
**A.** The value was “then ICI-118,551”.

**Q.** With CC(C)(C)NCC(O)c1cc(O)cc(O)c1 (stereo not shown) [terbutaline] as the compound, how does the “rate of absorption through the lung” value ([5]; healthy smokers versus healthy nonsmokers) read?
**A.** The value was “more rapidly in healthy smokers than in healthy nonsmokers”.

**Q.** Which “airway hyperresponsiveness (Raw) to methacholine” value [6] does the source give for CC(C)(C)NC[C@H](O)COc1nsnc1N1CCOCC1 [timolol] here?
**A.** Its value is “effective in reducing airway hyperresponsiveness in asthmatic mice”.

**Q.** For CCCC1O[C@@H]2C[C@H]3[C@@H]4CCC5=CC(=O)C=C[C@]5(C)[C@H]4[C@@H](O)C[C@]3(C)[C@]2(C(=O)CO)O1 (stereo partly shown) [budesonide], which “plasma clearance of the 2 enantiomers per kilogram of bodyweight, children versus adults” value ([5]; 6 children with asthma versus 11 healthy adults) is on record?
**A.** The value was “about 50%”.

**Q.** Which “potency in inhibiting the β-adrenergic receptor relative to the L-form” value [7] does the source give for CC(C)NC[C@@H](O)COc1cccc2ccccc12 [D-propranolol] here?
**A.** The value was 1/100.

**Q.** And the “antigen-induced bronchoconstriction and airway hyperresponsiveness” value [1]?
**A.** The value was “beneficial in inhibiting antigen-induced bronchoconstriction and reducing airway hyperresponsiveness”.

**Q.** With COc1ccccc1OCCNCC(O)COc1cccc2[nH]c3ccccc3c12 (stereo not shown) [Carvedilol, carvedilol] as the compound, how does the “bronchoconstriction / airway hyperresponsiveness to methacholine” value [8] read?
**A.** The value was “higher bronchoconstriction than these treatments but less than the non-drug treated sensitized and challenged (NTX S/C) mice”.

**Q.** What about the “Increased β2AR density” value [9] of the same compound?
**A.** The value was “no”.

**Q.** And the “Bmax (β-adrenergic receptor density)” value [10, 13]?
**A.** Its value is 86.3 ± 19.42 femtomoles of sites per milligram of protein.

**Q.** And the “βmax (β-adrenergic receptor density)” value [10, 14]?
**A.** The value was 904.1 ± 43.46 femtomoles of sites per milligram of protein.

**Q.** And the “Increased β2AR density” value ([10]; 28 days of administration)?
**A.** The value was “showed an increase in receptor density”.

**Q.** And the “increase of the level of β2-adrenergic receptors over the non-treated mice” value ([10]; chronic administration, versus untreated methacholine-challenged asthmatic mice)?
**A.** The value was “over 10 fold”.

**Q.** And the “clinical benefit” value [2]?
**A.** The value was “significant mortality reduction”.

**Q.** And the “sensitivity of the responsiveness to methacholine” value ([11]; asthmatic mice, chronic administration)?
**A.** Its value is “shifts the sensitivity of the responsiveness to methacholine to lower concentrations”.

**Q.** And the “airway responsiveness to methacholine provocation (airway resistance, Raw)” value (from here on “airway responsiveness”) [11, 15]?
**A.** Its value is “does reduce airway hyperresponsiveness; also recorded: reduced the responsiveness of asthmatic mice to methacholine provocation”.

**Q.** What about the “protection from airway hyperresponsiveness” value ([11]; chronic administration, high and low dose in chow (Example 6)) of the same compound?
**A.** The value was “providing protection from airway hyperresponsiveness”.

**Q.** Which “bioavailability of inhaled drug” value ([5]; 10 patients with cystic fibrosis versus healthy adults) does the source give for CC(C)(C)NCC(O)c1ccc(O)c(CO)c1 (stereo not shown) [Salbutamol, salbutamol] here?
**A.** The value was “greater than that in healthy adults”.

**Q.** What about the “Increased β2AR density” value [9] of the same compound?
**A.** Its value is “no”.

**Q.** And the “Bmax (β-adrenergic receptor density)” value [10, 13]?
**A.** The value was 256.5 ± 29.24 femtomoles of sites per milligram of protein.

**Q.** What about the “βmax (β-adrenergic receptor density)” value [10, 14] of the same compound?
**A.** The value was 97.0 ± 23.02 femtomoles of sites per milligram of protein.

**Q.** And the Kd ([10]; 28 Days drug treatment, lung membranes of asthmatic mice, mean±SEM, read-out: KD (apparent, of radioligand ICYP))?
**A.** The Kd was 225 pM.

**Q.** What about the “airway responsiveness” value ([11]; asthmatic mice, acute: single intravenous bolus 15 minutes before methacholine) of the same compound?
**A.** Its value is “reduced the level of airway responsiveness to methacholine provocation and the level of airway resistance”.

**Q.** What about the “airway responsiveness” value [11, 15] of the same compound?
**A.** The value was “no protection was observed”.

**Q.** For OCc1cc(C(O)CNCCCCCCOCCCCc2ccccc2)ccc1O (stereo not shown) [salmeterol], which death rates [12] is on record?
**A.** The death rates was “stopped due to increased death rates”.

**Q.** Which results are given for C=CCc1ccccc1OCC(O)CNC(C)C (stereo not shown) [Alprenolol, alprenolol]?
**A.** effectiveness on contraction of excised tracheas in response to methacholine (rank) [4]: most effective compound; Increased β2AR density [9]: no; Bmax (β-adrenergic receptor density) [10, 13]: 299.5 ± 12.19 femtomoles of sites per milligram of protein; βmax (β-adrenergic receptor density) [10, 14]: 179.2 ± 53.05 femtomoles of sites per milligram of protein; airway responsiveness to methacholine provocation (airway resistance, Raw) [11, 15]: does not reduce airway hyperresponsiveness compared to untreated asthmatic mice; also recorded: provides no benefit upon chronic administration

**Q.** For COCCc1ccc(OCC(O)CNC(C)C)cc1 (stereo not shown) [metoprolol], which “airway hyperresponsiveness (Raw) to methacholine” value [6] is on record?
**A.** Its value is “effective in reducing airway hyperresponsiveness in asthmatic mice”.

**Q.** And the “clinical benefit” value [2]?
**A.** The value was “significant mortality reduction”.
